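96-well plates; 48 h exposure; 5 concentrations. Endpoints by linear interpolation between flanking doses. Not reached: highest tested concentration assigned. GI50 is the concentration that inhibits growth by half. TGI: concentration producing complete growth inhibition.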
Legend:
Experiment in all cases: growth of human tumour cells (NCI), 48 h
[1] = system: 786-0 renal
[2] = system: A498 renal
[3] = system: A549 NSCLC
[4] = system: ACHN renal
[5] = system: CAKI-1 renal
[6] = system: CCRF-CEM leukemia
[7] = system: COLO 205 colon
[8] = system: DU-145 prostate
[9] = system: EKVX NSCLC
[10] = system: HCC-2998 colon
[11] = system: HCT-116 colon
[12] = system: HCT-15 colon
[13] = system: HL-60(TB) leukemia
[14] = system: HOP-62 NSCLC
[15] = system: HOP-92 NSCLC
[16] = system: HS 578T breast
[17] = system: HT29 colon
[18] = system: IGROV1 ovarian
[19] = system: K-562 leukemia
[20] = system: KM12 colon
[21] = system: LOX IMVI melanoma
[22] = system: M14 melanoma
[23] = system: MALME-3M melanoma
[24] = system: MCF7 breast
[25] = system: MDA-MB-231 breast
[26] = system: MDA-MB-435
[27] = system: MOLT-4 leukemia
[28] = system: NCI-H226 lung
[29] = system: NCI-H23 lung
[30] = system: NCI-H460 lung
[31] = system: NCI-H522 lung
[32] = system: NCI/ADR-RES ovarian
[33] = system: OVCAR-3 ovarian
[34] = system: OVCAR-4 ovarian
[35] = system: OVCAR-5 ovarian
[36] = system: OVCAR-8 ovarian
[37] = system: PC-3 prostate
[38] = system: RPMI-8226 leukemia
[39] = system: RXF 393 renal
[40] = system: SF-268 CNS
[41] = system: SF-295 CNS
[42] = system: SF-539 CNS
[43] = system: SK-MEL-28 melanoma
[44] = system: SK-MEL-5 melanoma
[45] = system: SK-OV-3 ovarian
[46] = system: SN12C renal
[47] = system: SNB-19 CNS
[48] = system: SNB-75 CNS
[49] = system: SR leukemia
[50] = system: SW-620 colon
[51] = system: T-47D breast
[52] = system: TK-10 renal
[53] = system: U251 CNS
[54] = system: UACC-257 melanoma
[55] = system: UACC-62 melanoma
[56] = system: UO-31 renal
[57] = system: BT-549 breast
[58] = system: SK-MEL-2 melanoma

`COc1cc(/C=C2\C(=O)Nc3ccccc32)cc(OC)c1O` showed a GI50 [1] of 7.07 µM, a TGI [1] of 27.5 µM and a GI50 [2] of 2.08 µM. For the same molecule, the TGI [2] was 15.8 µM, the GI50 [3] was 4.91 µM and the TGI [3] was 48.1 µM. For the same molecule, the GI50 [4] was 4.7 µM, the TGI [4] was 22.2 µM and the GI50 [5] was 2.93 µM. The TGI [5] was 25.3 µM, the GI50 [6] was 5.16 µM and the TGI [6] was > 100 µM. For the same molecule, the GI50 [7] was 12.3 µM, the TGI [7] was 26.8 µM and the GI50 [8] was 5.35 µM. The TGI [8] was 46.4 µM, the GI50 [9] was 4.86 µM and the TGI [9] was 48.2 µM. It also gave a GI50 [10] of 11.9 µM, a TGI [10] of 24.5 µM and a GI50 [11] of 3.29 µM. It also gave a TGI [11] of 13.5 µM, a GI50 [12] of 3.16 µM and a TGI [12] of 15.1 µM. For the same molecule, the GI50 [13] was 2.8 µM, the TGI [13] was 11.1 µM and the GI50 [14] was 4.24 µM. For the same molecule, the TGI [14] was 23.2 µM, the GI50 [15] was 4.15 µM and the TGI [15] was 49.2 µM. For the same molecule, the GI50 [16] was 1.77 µM, the TGI [16] was 6.11 µM and the GI50 [17] was 9.07 µM. For the same molecule, the TGI [17] was 31.1 µM, the GI50 [18] was 3.72 µM and the TGI [18] was 20.4 µM. For the same molecule, the GI50 [19] was 2.12 µM, the TGI [19] was > 100 µM and the GI50 [20] was 2.53 µM. For the same molecule, the TGI [20] was 11.5 µM, the GI50 [21] was 3.99 µM and the TGI [21] was 16.3 µM. It also gave a GI50 [22] of 2.76 µM, a TGI [22] of 11 µM and a GI50 [23] of 2.98 µM. It also gave a TGI [23] of 21.8 µM, a GI50 [24] of 0.728 µM and a TGI [24] of 15 µM. The GI50 [25] was 3.09 µM, the TGI [25] was 20.8 µM and the GI50 [26] was 0.649 µM. For the same molecule, the TGI [26] was 2.21 µM, the GI50 [27] was 3.82 µM and the TGI [27] was 92.3 µM. The GI50 [28] was 17.7 µM, the TGI [28] was > 100 µM and the GI50 [29] was 4.97 µM. For the same molecule, the TGI [29] was 34.2 µM, the GI50 [30] was 3.12 µM and the TGI [30] was 11.7 µM. It also gave a GI50 [31] of 1.72 µM, a TGI [31] of 5.1 µM and a GI50 [32] of 2.47 µM. For the same molecule, the TGI [32] was 7.62 µM, the GI50 [33] was 1.98 µM and the TGI [33] was 5.05 µM. It also gave a GI50 [34] of 4.95 µM, a TGI [34] of 31.3 µM and a GI50 [35] of 4.71 µM. It also gave a TGI [35] of 18.8 µM, a GI50 [36] of 4.98 µM and a TGI [36] of 29.7 µM. The GI50 [37] was 21 µM, the TGI [37] was > 100 µM and the GI50 [38] was 5.47 µM. The TGI [38] was 27.5 µM, the GI50 [39] was 2.52 µM and the TGI [39] was 8.41 µM. It also gave a GI50 [40] of 4.24 µM, a TGI [40] of 29.1 µM and a GI50 [41] of 2.99 µM. It also gave a TGI [41] of 31.2 µM, a GI50 [42] of 2.5 µM and a TGI [42] of 13.3 µM. It also gave a GI50 [43] of 5.06 µM, a TGI [43] of 23 µM and a GI50 [44] of 2.87 µM. For the same molecule, the TGI [44] was 10.8 µM, the GI50 [45] was 3.88 µM and the TGI [45] was 21.6 µM. It also gave a GI50 [46] of 3.61 µM, a TGI [46] of 23.3 µM and a GI50 [47] of 4.45 µM. For the same molecule, the TGI [47] was 55.6 µM, the GI50 [48] was 1.17 µM and the TGI [48] was 8.44 µM. It also gave a GI50 [49] of 1.6 µM, a TGI [49] of 16.9 µM and a GI50 [50] of 3.39 µM. For the same molecule, the TGI [50] was 13.1 µM, the GI50 [51] was 3.56 µM and the TGI [51] was 84.5 µM. For the same molecule, the GI50 [52] was 7.14 µM, the TGI [52] was 37.1 µM and the GI50 [53] was 2.37 µM. It also gave a TGI [53] of 14 µM, a GI50 [54] of 1.81 µM and a TGI [54] of 18.7 µM. The GI50 [55] was 2.59 µM, the TGI [55] was 11.1 µM and the GI50 [56] was 2.63 µM. It also gave a TGI [56] of 19.9 µM.

With `c1ccc(-c2nnc(CCCCCCCCc3nnc(-c4ccccc4)o3)o2)cc1` the TGI [1] was > 100 µM, the TGI [2] was > 100 µM and the TGI [3] was > 100 µM. The TGI [4] was > 100 µM, the TGI [57] was > 100 µM and the TGI [5] was > 100 µM. For the same molecule, the TGI [6] was > 100 µM, the TGI [7] was > 100 µM and the TGI [8] was > 100 µM. The TGI [9] was > 100 µM, the TGI [10] was 91.6 µM and the TGI [11] was > 100 µM. For the same molecule, the TGI [12] was > 100 µM, the TGI [13] was > 100 µM and the TGI [14] was > 100 µM. The TGI [15] was > 100 µM, the TGI [17] was > 100 µM and the TGI [18] was > 100 µM. The TGI [19] was > 100 µM, the TGI [20] was > 100 µM and the TGI [21] was > 100 µM. For the same molecule, the TGI [22] was > 100 µM, the TGI [23] was > 100 µM and the TGI [24] was > 100 µM. The TGI [25] was > 100 µM, the TGI [26] was > 100 µM and the TGI [27] was > 100 µM. The TGI [28] was > 100 µM, the TGI [29] was > 100 µM and the TGI [30] was > 100 µM. The TGI [31] was 61 µM, the TGI [32] was > 100 µM and the TGI [33] was > 100 µM. The TGI [34] was > 100 µM, the TGI [35] was > 100 µM and the TGI [36] was > 100 µM. For the same molecule, the TGI [37] was > 100 µM, the TGI [40] was > 100 µM and the TGI [41] was > 100 µM. The TGI [42] was > 100 µM, the TGI [58] was > 100 µM and the TGI [43] was > 100 µM. The TGI [44] was > 100 µM, the TGI [45] was > 100 µM and the TGI [46] was > 100 µM. For the same molecule, the TGI [47] was > 100 µM, the TGI [48] was > 100 µM and the TGI [50] was > 100 µM. The TGI [52] was > 100 µM, the TGI [53] was > 100 µM and the TGI [54] was > 100 µM. The TGI [56] was > 100 µM.

Reference: PubChem BioAssay (NCI)
